Results from patent publication US9422566B2, “Gene cluster for biosynthesis of griselimycin and methylgriselimycin” (SANOFI, priority 2011, dated 2016).

Key:
Format in all cases: biochemical, Streptomyces DSM 22643
Conditions in all cases: in vitro ATP-[32P]PPi exchange, amino acid 5 mM, 30° C., nine substrates tested
[1] = system: A domain of module 5 (A5) of NRPS-1; test: ATP-PPi exchange assay, substrate specificity of A domain A5
Procedure: (§1) In order to gain insight into the specificity of the A domains of modules 2, 5 and 8, the domains were recombinantly produced and their specificity analysed via an ATP/PPi exchange assay in vitro.
(§2) In order to directly investigate A domain substrate specificity, we aimed to express A domains A2, A5 and A8 from the griselimycin pathway as N-terminally His6-tagged proteins from pET28b (+). […]
(§3) Substrate specificity of the 3 purified adenylation domains was evaluated using the established ATP-PPi exchange assay (Mootz and Marahiel. 1997, Thomas et al., 2002). […] As a control, each protein was incubated in the absence of added amino acid, to determine the radioactivity background reaction. […]
(§4) To determine substrate specificity, ATP-[^32P]PPi reactions (100 μl) containing Tris-HCl (pH 7.5, 75 mM), MgCl2 (10 mM), […] (5 mM), amino acid (5 mM), and protein (2 μg) were performed at 30° C. ^32P-tetrasodium pyrophosphate was obtained from Perkin Elmer (NEN #NEX019). […] The charcoal was pelleted by centrifugation prior to being washed twice with the washing solution 0.1 M Na4P2O7 and 0.35 M perchloric acid in H2O), resuspended in H2O (500 μl), and counted by liquid scintillation (Beckman LS6500).

[2] = system: A domain of module 8 (A8) of NRPS-2; test: ATP-PPi exchange assay, substrate specificity of A domain A8
Procedure: as §1, §2, §3, §4

[3] = system: A domain of module 2 (A2) of NRPS-1; test: ATP-PPi exchange assay, substrate specificity of A domain A2
Procedure: as §1, §2, §3, §4

| Compound | specificity of the domain A5 for the substrate [1] | specificity of the domain A8 for the substrate [2] | specificity of the domain A2 for the substrate [3] |
| --- | --- | --- | --- |
| C[C@H]1CN[C@H](C(=O)O)C1 [(2S,4R)-4-methylproline] | highest | highest | highest |
| O=C(O)[C@@H]1CCCN1 [L-proline] | – | high specificity | – |
